From ChEMBL document CHEMBL1201862, “PubChem BioAssay data set” (2004)
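1) Cells in 96-well plates. 2) Compound, 48 h, 5 concentrations. 3) Linear interpolation between surrounding doses. 4) Unreached endpoint = highest concentration. GI50 marks 50% less growth.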 Activity calls are given as the source filed them. Rule as the data show it: active = GI50 up to about 1.1 µM and inactive = higher.

How the values were obtained:
Assay in all cases: NCI tumour cell line growth inhibition, 48 h
EKVX = system: EKVX
ACHN = system: ACHN
HCC 2998 = system: HCC 2998
NCI-H460 = system: NCI-H460
SK-MEL-2 = system: SK-MEL-2
COLO 205 = system: COLO 205
SN12C = system: SN12C
Hs-578T = system: Hs-578T
MDA-MB-435 = system: MDA-MB-435
KM12 = system: KM12
SW-620 = system: SW-620
SK-MEL-28 = system: SK-MEL-28
BT-549 = system: BT-549
MCF7 = system: MCF7
UACC-62 = system: UACC-62
SNB-75 = system: SNB-75
MOLT-4 = system: MOLT-4
SF-295 = system: SF-295
Malme-3M = system: Malme-3M
HCT-15 = system: HCT-15
NCI/ADR-RES = system: NCI/ADR-RES
OVCAR-8 = system: OVCAR-8
SF-539 = system: SF-539
SK-MEL-5 = system: SK-MEL-5
U-251 = system: U-251
UO-31 = system: UO-31
CAKI-1 = system: CAKI-1
RPMI-8226 = system: RPMI-8226
A498 = system: A498
IGROV-1 = system: IGROV-1
HL-60 = system: HL-60
K562 = system: K562
NCI-H522 = system: NCI-H522
HOP-92 = system: HOP-92
RXF 393 = system: RXF 393
OVCAR-4 = system: OVCAR-4
SF-268 = system: SF-268
OVCAR-5 = system: OVCAR-5
HCT-116 = system: HCT-116
NCI-H226 = system: NCI-H226
PC-3 = system: PC-3
SNB-19 = system: SNB-19
DU-145 = system: DU-145
MDA-N = system: MDA-N
LOX IMVI = system: LOX IMVI
TK-10 = system: TK-10
A549 = system: A549
T47D = system: T47D
M14 = system: M14
SR = system: SR
UACC-257 = system: UACC-257
MDA-MB-231 = system: MDA-MB-231
786-0 = system: 786-0
CCRF-CEM = system: CCRF-CEM
OVCAR-3 = system: OVCAR-3
HOP-62 = system: HOP-62
NCI-H23 = system: NCI-H23
HT-29 = system: HT-29
SK-OV-3 = system: SK-OV-3

In the case of CNN1C(=O)c2c(N)c(C#N)c(-c3ccccc3)c(-c3ccccc3)c2C1=O, the GI50 (EKVX) is reported as > 100 µM (inactive), the GI50 (ACHN) is reported as > 100 µM (inactive) and the GI50 (HCC 2998) is reported as > 100 µM (inactive). The GI50 (NCI-H460) was 71.6 µM (inactive), the GI50 (SK-MEL-2) was > 100 µM (inactive) and the GI50 (COLO 205) was > 100 µM (inactive). For the same molecule, the GI50 (SN12C) was > 100 µM (inactive), the GI50 (Hs-578T) was 70.1 µM (inactive) and the GI50 (MDA-MB-435) was > 100 µM (inactive). The GI50 (KM12) was 86.9 µM (inactive), the GI50 (SW-620) was > 100 µM (inactive) and the GI50 (SK-MEL-28) was > 100 µM (inactive). The GI50 (BT-549) was > 100 µM (inactive), the GI50 (MCF7) was 65.8 µM (inactive) and the GI50 (UACC-62) was > 100 µM (inactive). The GI50 (SNB-75) was 83.4 µM (inactive), the GI50 (MOLT-4) was 39.5 µM (inactive) and the GI50 (SF-295) was 73.5 µM (inactive). For the same molecule, the GI50 (Malme-3M) was > 100 µM (inactive), the GI50 (HCT-15) was greater than 100 µM and the GI50 (NCI/ADR-RES) was 82.2 µM (inactive). The GI50 (OVCAR-8) was 90.6 µM (inactive), the GI50 (SF-539) was 57.7 µM (inactive) and the GI50 (SK-MEL-5) was 62.4 µM (inactive). The GI50 (U-251) was 78.9 µM (inactive), the GI50 (UO-31) was 48.6 µM (inactive) and the GI50 (CAKI-1) was > 100 µM (inactive). The GI50 (RPMI-8226) was 24.7 µM (inactive), the GI50 (A498) was > 100 µM (inactive) and the GI50 (IGROV-1) was 48.9 µM (inactive). For the same molecule, the GI50 (HL-60) was 30.5 µM (inactive), the GI50 (K562) was 48.9 µM (inactive) and the GI50 (NCI-H522) was 84.1 µM (inactive). The GI50 (HOP-92) was > 100 µM (inactive), the GI50 (RXF 393) was 82.8 µM (inactive) and the GI50 (OVCAR-4) was > 100 µM (inactive). For the same molecule, the GI50 (SF-268) was > 100 µM (inactive), the GI50 (OVCAR-5) was 30.3 µM (inactive) and the GI50 (HCT-116) was 44.1 µM (inactive). For the same molecule, the GI50 (NCI-H226) was > 100 µM (inactive), the GI50 (PC-3) was 55.6 µM (inactive) and the GI50 (SNB-19) was > 100 µM (inactive). For the same molecule, the GI50 (DU-145) was > 100 µM (inactive), the GI50 (MDA-N) was > 100 µM (inactive) and the GI50 (LOX IMVI) was > 100 µM (inactive). For the same molecule, the GI50 (TK-10) was > 100 µM (inactive), the GI50 (A549) was > 100 µM (inactive) and the GI50 (T47D) was 17.9 µM (inactive). For the same molecule, the GI50 (M14) was > 100 µM (inactive), the GI50 (SR) was 76.7 µM (inactive) and the GI50 (UACC-257) was > 100 µM (inactive). For the same molecule, the GI50 (MDA-MB-231) was > 100 µM (inactive), the GI50 (786-0) was 91.6 µM (inactive) and the GI50 (CCRF-CEM) was 41.1 µM (inactive). For the same molecule, the GI50 (OVCAR-3) was 34.6 µM (inactive).

Oc1ccc(CNCc2ccccc2)c2cccnc12 was tested, and the GI50 (EKVX) was 0.495 µM (active), the GI50 (ACHN) was 0.182 µM (active) and the GI50 (NCI-H460) was 0.034 µM (active). The GI50 (HOP-62) was 0.0853 µM (active), the GI50 (NCI-H23) was 0.156 µM (active) and the GI50 (SK-MEL-2) was 0.264 µM (active). For the same molecule, the GI50 (COLO 205) was 2.65 µM (inactive), the GI50 (SN12C) was 0.0601 µM (active) and the GI50 (Hs-578T) was 0.243 µM (active). The GI50 (MDA-MB-435) was 0.0841 µM (active), the GI50 (KM12) was 0.448 µM (active) and the GI50 (SW-620) was 0.356 µM (active). For the same molecule, the GI50 (SK-MEL-28) was 0.424 µM (active), the GI50 (BT-549) was 0.0703 µM (active) and the GI50 (MCF7) was 0.11 µM (active). The GI50 (UACC-62) was 0.5 µM (active), the GI50 (SNB-75) was 0.0291 µM (active) and the GI50 (MOLT-4) was 0.215 µM (active). For the same molecule, the GI50 (SF-295) was 0.144 µM (active), the GI50 (Malme-3M) was 0.321 µM (active) and the GI50 (HCT-15) was 0.0628 µM. The GI50 (HT-29) was 4.11 µM (inactive), the GI50 (NCI/ADR-RES) was 0.959 µM (active) and the GI50 (SK-OV-3) was 0.542 µM (active). For the same molecule, the GI50 (OVCAR-8) was 0.107 µM (active), the GI50 (SF-539) was 0.34 µM (active) and the GI50 (SK-MEL-5) was 0.191 µM (active). For the same molecule, the GI50 (U-251) was 0.0384 µM (active), the GI50 (UO-31) was 0.316 µM (active) and the GI50 (CAKI-1) was 0.48 µM (active). For the same molecule, the GI50 (RPMI-8226) was 0.156 µM (active), the GI50 (A498) was 0.354 µM (active) and the GI50 (IGROV-1) was 0.292 µM (active). For the same molecule, the GI50 (HL-60) was 0.294 µM (active), the GI50 (K562) was 0.138 µM (active) and the GI50 (NCI-H522) was 0.222 µM (active). For the same molecule, the GI50 (HOP-92) was 0.177 µM (active), the GI50 (RXF 393) was 0.116 µM (active) and the GI50 (OVCAR-4) was 0.421 µM (active). For the same molecule, the GI50 (SF-268) was 0.24 µM (active), the GI50 (OVCAR-5) was 1.22 µM (inactive) and the GI50 (HCT-116) was 0.0594 µM (active). The GI50 (NCI-H226) was 5 µM (inactive), the GI50 (PC-3) was 0.336 µM (active) and the GI50 (SNB-19) was 0.211 µM (active). For the same molecule, the GI50 (DU-145) was 0.0452 µM (active), the GI50 (MDA-N) was 0.0762 µM (active) and the GI50 (LOX IMVI) was 0.0308 µM (active). The GI50 (TK-10) was 0.282 µM (active), the GI50 (A549) was 0.0875 µM (active) and the GI50 (T47D) was 0.0783 µM (active). The GI50 (M14) was 0.27 µM (active), the GI50 (SR) was 0.182 µM (active) and the GI50 (UACC-257) was 0.262 µM (active). The GI50 (MDA-MB-231) was 0.36 µM (active), the GI50 (786-0) was 0.383 µM (active) and the GI50 (CCRF-CEM) was 0.0436 µM (active). For the same molecule, the GI50 (OVCAR-3) was 0.217 µM (active).
